# Assay results as given in patent US20080033026A1, “Antimicrobial compositions, methods and systems” (priority 2006, published 2008).
# Tests used:
# [1] = Solubility studies in water and isopropanol (GC/FID); assay type: physicochemical; settings: mg 9-decenoic acid/g solvent
# Description: For the antimicrobial agents of Formulae I-III, the solubility in an aqueous and an alcohol environment was studied. Solubility studies were carried out with the sodium (Na) and potassium (K) salts of 9-decenoic acid in water and isopropanol (IPA). Six samples were analyzed. The samples were as follows: Na salt in water, Na salt in IPA, K salt in water, K salt in IPA, 9-decenoic acid (protonated) in water, 9-decenoic acid (protonated) in IPA. For the protonated form of the acids, the samples were acidified and diluted in IPA and subjected to analysis by gas chromatography/flame ionization detector (GC/FID). The same procedure was followed for the Na and K salts in IPA. For the Na and K salts in water, the samples were acidified and then extracted with petroleum ether. The petroleum ether was then evaporated, and the samples were reconstituted in IPA, acidified and subjected to analysis by GC/FID. Concentrations were calculated by comparing the peak area of the sample to a calibration table of 9-decenoic acid. The calibration curve was linear from 1 mg/g to 500 mg/g. Results are reported in mg/g (mg 9-decenoic acid/g solvent).
# [2] = test system: Bacillus cereus ATCC 14579; test: Growth inhibition in MRS medium (OD600); assay type: cell-based; settings: n = 2
# Description: (§1) Efficacy of potassium salts of 9-DA were determined through incubation of the following organisms in the presence of varying concentrations of the potassium salt: Serratia marcescens ATCC 990, Pseudomonas straminea ATCC 33636, Bacillus subtilis ATCC 6051, Bacillus licheniformis ATCC 14580, Bacillus cereus ATCC 14579, Pediococcus acidilactici ATCC 8042, and Lactobacillus casei ATCC 334.
# (§2) Stock cultures of each organism were transferred into MRS liquid medium. MRS medium (Difco 288130) was purchased from Becton, Dickinson and Company, Sparks, Md.
# (§3) The efficacy of different levels of potassium salts of 9-DA (K-9-DA) was tested depending on the organism to inhibit the growth of various microorganisms indicated above.
# (§4) The selected organisms were incubated overnight in 5 ml of MRS medium at 35° C. and 250 rpm. MRS media with K-9-DA were prepared, along with a control of straight media (no antimicrobial added). The concentrated antimicrobial agents were diluted with the appropriate media required for the respective microorganisms, to reach the required concentrations for the studies as indicated below. The antimicrobial agents were added by weight/volume percent on an ‘as 9-DA’ basis to the media. The purity of the antimicrobial agent (99% for K-9-DA) was taken into account. The pH of the medium was not adjusted. The target for initial cell density was 10^5 to 10^6 cfu/ml. According to the McFarland standard, 0.01 OD600 is equivalent to approximately 10^8 cfu/ml. To achieve the proper dilution, 30 μl of overnight culture diluted to 0.01 OD600 was added to the 3 ml of media in each tube. The tubes were incubated at 35° C. Treatments were all done in duplicate. All strains were shaken at 250 rpm, with the exception of Lactobacillus (because it is anaerobic). OD600 readings were taken at 0, 4, 17, 23 and 47 hours.
# (§5) “Percent reduction in comparison with control” was defined as (1−abs. of treatment/abs. of control)×100.
# [3] = test system: Bacillus licheniformis ATCC 14580; test: Growth inhibition in MRS medium (OD600); assay type: cell-based; settings: n = 2
# Description: as §1, §2, §3, §4, §5
# [4] = test system: Bacillus subtilis ATCC 6051; test: Growth inhibition in MRS medium (OD600); assay type: cell-based; settings: n = 2
# Description: as §1, §2, §3, §4, §5
# [5] = test system: Lactobacillus casei ATCC 334; test: Growth inhibition in MRS medium (OD600); assay type: cell-based; settings: n = 2
# Description: as §1, §2, §3, §4, §5
# [6] = test system: Pediococcus acidilactici ATCC 8042; test: Growth inhibition in MRS medium (OD600); assay type: cell-based; settings: n = 2
# Description: as §1, §2, §3, §4, §5
# [7] = test system: Pseudomonas straminea ATCC 33636; test: Growth inhibition in MRS medium (OD600); assay type: cell-based; settings: n = 2
# Description: as §1, §2, §3, §4, §5
# [8] = test system: Serratia marcescens ATCC 990; test: Growth inhibition in MRS medium (OD600); assay type: cell-based; settings: n = 2
# Description: as §1, §2, §3, §4, §5
# [9] = test system: organisms of Table 14 with the exception of Serratia marcescens, Bacillus licheniformis, and Lactobacillus casei; test: Growth inhibition in MRS medium (OD600), organisms of Table 14 except Serratia marcescens, Bacillus licheniformis, Lactobacillus casei; assay type: cell-based; settings: all concentrations tested
# Description: as §1, §2, §3
# The selected organisms were incubated overnight in 5 ml of MRS medium at 35° C. and 250 rpm. MRS media with K-9-DA were prepared, along with a control of straight media (no antimicrobial added). The concentrated antimicrobial agents were diluted with the appropriate media required for the respective microorganisms, to reach the required concentrations for the studies as indicated below. The antimicrobial agents were added by weight/volume percent on an ‘as 9-DA’ basis to the media. The purity of the antimicrobial agent (99% for K-9-DA) was taken into account. The pH of the medium was not adjusted. […] OD600 readings were taken at 0, 4, 17, 23 and 47 hours. […]
# [10] = test system: Bacillus cereus ATCC 14579; test: Growth inhibition in MRS medium at various pH levels (OD600); assay type: cell-based; settings: 0.1% w/v (as 9DA)
# Description: (§6) Efficacy of potassium salts of 9-DA was tested at various pH levels against the following: Serratia marcescens ATCC 990, and Bacillus cereus ATCC 14579.
# as §2
# (§7) The efficacy of potassium salts of 9-DA (K-9-DA) was tested at different concentrations and pH levels, including 6.75 (unadjusted), 7.5, and 8.5.
# (§8) The selected organisms were incubated overnight in 5 ml of MRS medium at 35° C. and 250 rpm. MRS media with K-9-DA were prepared, along with a control of straight media (no antimicrobial added). The antimicrobial agents were added by weight/volume percent to the media. The purity of the composition, 99% for K-9-DA, was taken into account. The pH adjustments to 7.5 and 8.5 were done with 50% potassium hydroxide. Filter sterilization was used instead of autoclaving to prevent adverse chemical reactions at higher pH and temperature. The target for initial cell density was 10^5 to 10^6 cfu/ml. According to the McFarland standard, 0.01 OD600 is equivalent to approximately 10^8 cfu/ml. To achieve the proper dilution, 30 μl of overnight culture diluted to 0.01 OD600 was added to the 3 ml of media in each tube. The tubes were incubated at 35° C. with the exception of Pseudomonas strains which were incubated at 30° C. Treatments were all done in duplicate. All strains were shaken at 250 rpm. OD600 readings were taken at 0, 19, 25.5, 42.5 and 49 hours.
# (§9) “Percent reduction in growth vs. control” was defined as (1−abs. of treatment/abs. of control)×100.
# [11] = test system: Serratia marcescens ATCC 990; test: as above; assay type: cell-based; settings: 0.1% w/v (as 9DA)
# Description: as §6, §2, §7, §8, §9
# [12] = test system: Pseudomonas straminea; test: as above; assay type: cell-based; settings: 0.075% w/v (as 9DA)
# [13] = test system: all organisms tested in Tables 15-17 with the exception of Serratia marcescens; test: Growth inhibition in MRS medium at various pH levels, organisms of Tables 15-17 except Serratia marcescens; assay type: cell-based
# Description: as §6, §2, §7
# as §8, with “The tubes were incubated at 35° C. with the exception of Pseudomonas strains which were incubated at 30° C. Treatments were all done in duplicate. All strains were shaken at 250 rpm.” left out, “hours. […]” for “hours.”
structure (smiles),measurement,setting,value
C=CCCCCCCCC(=O)O.[K] [Potassium-9 Decenoic Acid],"Solubility, Concentration",[1]; in isopropanol,10 mg/g
same,"Solubility, Concentration",[1]; in water,240 mg/g
same,% reduction in growth vs. control,[2]; 0.075% w/v 9DA from K9DA,98.4%
same,Abs at 600 nm,[2]; 0.075% w/v 9DA from K9DA,0.093
same,% reduction in growth vs. control,[2]; 0.1% w/v 9DA from K9DA,96.2%
same,Abs at 600 nm,[2]; 0.1% w/v 9DA from K9DA,0.216
same,% reduction in growth vs. control,[3]; 0.075% w/v 9DA from K9DA,88.6%
same,Abs at 600 nm,[3]; 0.075% w/v 9DA from K9DA,0.300
same,% reduction in growth vs. control,[3]; 0.1% w/v 9DA from K9DA,99.1%
same,Abs at 600 nm,[3]; 0.1% w/v 9DA from K9DA,0.023
same,% reduction in growth vs. control,[4]; 0.05% w/v 9DA from K9DA,97.3%
same,Abs at 600 nm,[4]; 0.05% w/v 9DA from K9DA,0.157
same,% reduction in growth vs. control,[4]; 0.075% w/v 9DA from K9DA,98.4%
same,Abs at 600 nm,[4]; 0.075% w/v 9DA from K9DA,0.094
same,% reduction in growth vs. control,[5]; 0.05% w/v 9DA from K9DA,93.3%
same,Abs at 600 nm,[5]; 0.05% w/v 9DA from K9DA,0.461
same,% reduction in growth vs. control,[5]; 0.075% w/v 9DA from K9DA,96.9%
same,Abs at 600 nm,[5]; 0.075% w/v 9DA from K9DA,0.211
same,% reduction in growth vs. control,[6]; 0.025% w/v 9DA from K9DA,100.0%
same,Abs at 600 nm,[6]; 0.025% w/v 9DA from K9DA,−0.038
same,% reduction in growth vs. control,[6]; 0.05% w/v 9DA from K9DA,96.1%
same,Abs at 600 nm,[6]; 0.05% w/v 9DA from K9DA,0.224
same,% reduction in growth vs. control,[7]; 0.05% w/v 9DA from K9DA,96.9%
same,Abs at 600 nm,[7]; 0.05% w/v 9DA from K9DA,0.190
same,% reduction in growth vs. control,[7]; 0.075% w/v 9DA from K9DA,97.3%
same,Abs at 600 nm,[7]; 0.075% w/v 9DA from K9DA,0.165
same,% reduction in growth vs. control,[8]; 0.075% w/v 9DA from K9DA,97.7%
same,Abs at 600 nm,[8]; 0.075% w/v 9DA from K9DA,0.181
same,% reduction in growth vs. control,[8]; 0.1% w/v 9DA from K9DA,94.6%
same,Abs at 600 nm,[8]; 0.1% w/v 9DA from K9DA,0.412
same,reduction in growth when compared to controls,[9],≥ 96%
same,% reduction in growth vs. control,[10]; Non-pH adjusted (6.75),96.5%
same,% reduction in growth vs. control,[10]; pH 7.5,96.2%
same,% reduction in growth vs. control,[10]; pH 8.5,93.9%
same,% reduction in growth vs. control,[11]; Non-pH adjusted (6.75),98.5%
same,% reduction in growth vs. control,[11]; pH 7.5,18.5%
same,% reduction in growth vs. control,[11]; pH 8.5,37.4%
same,% reduction in growth vs. control,[12]; Non-pH adjusted (6.75),98.6%
same,% reduction in growth vs. control,[12]; pH 7.5,96.2%
same,% reduction in growth vs. control,[12]; pH 8.5,93.9%
same,reduction in growth,"[13]; pH 7.5, concentrations of Tables 15-17",96%
same,reduction in growth,"[13]; pH 8.5, concentrations of Tables 15-17",94%
